Reference: PubChem BioAssay AID256 (DTP/NCI, 2004)
Toxic doses and inconclusive results are not listed. How the source made its calls: active means survival T/C of 150% or more; inactive means T/C below 125% in these data.

Tested on: CD2F1 mice, L1210 leukemia ip, survival T/C
Assay: NCI In Vivo Anticancer Drug Screen. Data for tumor model L1210 Leukemia (intraperitoneal) in CD2F1 (CDF1) mice
Conditions: higher = longer survival
In short: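 Tumor-bearing mice (transplanted tumor) were split into treated and vehicle control groups, and the measured endpoint of each treated group was divided by that of its vehicle controls.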

[1] = endpoint: mean survival time, dose: 100.0 mg/kg/injection, schedule: Q04DX003 (ip), vehicle: other
[2] = endpoint: mean survival time, dose: 200.0 mg/kg/injection, schedule: Q04DX003 (ip), vehicle: other
[3] = endpoint: mean survival time, dose: 400.0 mg/kg/injection, schedule: Q04DX003 (ip), vehicle: other

Measured: T/C

CCOC(=O)/C=C/C(=O)N1CCN(C(=O)/C=C/C(=O)OCC)C(C)C1 (configuration not stated)
inactive: endpoint: median survival time, dose: 25.0 mg/kg/injection, schedule: Q01DX009 (ip), vehicle: Klucel (hydroxypropylcellulose) (HPC) 106 % of control | endpoint: median survival time, dose: 50.0 mg/kg/injection, schedule: Q01DX009 (ip), vehicle: Klucel (hydroxypropylcellulose) (HPC) 110 % of control | endpoint: median survival time, dose: 100.0 mg/kg/injection, schedule: Q01DX009 (ip), vehicle: Klucel (hydroxypropylcellulose) (HPC) 109 % of control | endpoint: median survival time, dose: 200.0 mg/kg/injection, schedule: Q01DX009 (ip), vehicle: Klucel (hydroxypropylcellulose) (HPC) 109 % of control | endpoint: median survival time, dose: 400.0 mg/kg/injection, schedule: Q01DX009 (ip), vehicle: Klucel (hydroxypropylcellulose) (HPC) 109 % of control

CC1(C)CC(O)C2(C)CCC3(C)C(=CCC4C5(C)CCC(O)C(C)(CO)C5CCC43C)C2C1 (configuration not stated) (tested in a mixture with another compound)
inactive: endpoint: mean survival time, dose: 100.0 mg/kg/injection, schedule: Q04DX002 (ip), vehicle: saline with Tween-80 102 % of control | endpoint: mean survival time, dose: 200.0 mg/kg/injection, schedule: Q04DX002 (ip), vehicle: saline with Tween-80 98 % of control | endpoint: mean survival time, dose: 400.0 mg/kg/injection, schedule: Q04DX002 (ip), vehicle: saline with Tween-80 107 % of control

CC(C)OC(CCC#N)c1ccc(Cl)cc1 (configuration not stated)
inactive: endpoint: mean survival time, dose: 100.0 mg/kg/injection, schedule: Q01DX009 (ip), vehicle: other 98 % of control | [1] 94 % of control | endpoint: mean survival time, dose: 200.0 mg/kg/injection, schedule: Q01DX009 (ip), vehicle: other 107 % of control | [2] 94 % of control | endpoint: mean survival time, dose: 400.0 mg/kg/injection, schedule: Q01DX009 (ip), vehicle: other 96 % of control | [3] 93 % of control

CCOC(=O)C1OC1(C)c1ccc(Cl)cc1 (configuration not stated)
inactive: [1] 95 % of control | [2] 110 % of control | [3] 96 % of control
